Test results published in patent US5098996A, “Process for introducing fluorine into biologically active materials” (The United States of America as represented by the …, priority 1988, dated 1992).

Columns and labels:
insulin-antibody = insulin-antibody binding assay
Protocol: N^α,A1,N^ε,B29 (BOC)2 insulin, 537 mg, […], was dissolved in 500 ml DMSO. FMB-Gly-OAS, 120 mg, 390 mmole in 20 ml DMSO, and 24.5 mg, 390 mmole in 2.5 ml DMSO , and 4-ethyl morpholine, 100 mg, 870 mmole in 10 ml DMSO, were added, and the reaction was allowed to remain at rom temperature for eighteen hours. The reaction was monitored by RP-HPLC until completion. One pure product was obtained, Rt=26 minutes . The eluting solvents were A, 0.1% TFA in water; B, 0.1% TFA in acetonitrile. Elution was made from 25% B to 80% in 45 minutes. The solution was lyophilized, and 50 ml neat TFA was added for five minutes, and then evaporated. The product reacted in an insulin-antibody binding assay.

substance P receptor = biological target: T1, substance P receptor (Rattus norvegicus, UniProt P14600); assay: competitive binding assay, substance P receptor, rat brain
T1 construct: from tissue; host or cells: rat brain (per the earlier reading)
T1 sequence (P14600 whole entry): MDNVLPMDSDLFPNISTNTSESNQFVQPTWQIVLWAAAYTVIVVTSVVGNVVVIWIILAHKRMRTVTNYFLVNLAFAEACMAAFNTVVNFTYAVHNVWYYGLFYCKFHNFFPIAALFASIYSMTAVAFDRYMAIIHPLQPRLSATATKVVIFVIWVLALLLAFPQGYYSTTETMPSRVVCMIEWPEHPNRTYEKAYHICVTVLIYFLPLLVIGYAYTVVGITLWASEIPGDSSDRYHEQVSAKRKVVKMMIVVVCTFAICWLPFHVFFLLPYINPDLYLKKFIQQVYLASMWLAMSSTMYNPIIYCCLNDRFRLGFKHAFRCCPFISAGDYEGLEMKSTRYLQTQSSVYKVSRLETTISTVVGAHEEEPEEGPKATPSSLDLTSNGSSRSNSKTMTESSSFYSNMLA

| reaction in insulin-antibody binding assay (insulin-antibody) | Substance | Ki (substance P receptor) [nM] |
| --- | --- | --- |
| reacted | FMB-Gly-Insulin: Insulin acylated with FMB-Gly active ester from N^α,A1,N^ε,B29 (BOC)2 insulin, then TFA deprotected | – |
| – | N^αFMBArgProLysProGlnGlnPhePheGlyLeuMetNH2 [Compound 29] | 1 |
